In patent US5366983A, “Use of quaternary ammonium compounds to remove salmonella contamination from meat products” (The Board of Trustees of The University of Arkansas, priority 1992, dated 1994):
“And” between values parts separate entries of the source, which are not always exact repeats. Equal entries are not always repeated. Where two headings read alike, the source gives them in different places.

What was measured:
[1] = tested on: Salmonella typhimurium ATCC 14028 attached to human buccal epithelial cells; type: cell-based; details: Table A-1
Method: Studies were conducted on the attachment of Salmonella typhimurium to human buccal epithelial cells using the modified procedure of Boussard et al., International J. Pharmaceutics 53: 253-256 (1989). In this study, the activities of cationic and anionic surfactant compounds as well as certain chelating agents were compared on the detachment of S. typhimurium from epithelial cells.
To this end, bacteria were grown on nutrient agar for 16 hours at 37° C. The cells were suspended in 0.008 M phosphate buffered saline (PBS) at pH 7.2 and washed two times at 4500 rpm for 10 minutes. The last suspension was diluted in PBS to obtain a cell concentration of 0.5 to 1×10^9 cells/ml. Human epithelial cells were obtained by swabbing the buccal surface of a healthy, nonsmoking donor. […] The number of living cells was estimated and the suspension diluted to 0.5 to 1×10^5 cells/ml.
Next, the suspension of the human buccal cells was mixed with an equal volume of the bacterial suspension (3.0 ml), or PBS (0.8 ml). Contact was allowed for 1.5 hours at 35° C. under agitation. The mixtures were then centrifuged for 10 minutes at 4500 rpm. Each suspension, 1.0 ml, was transferred into Eppendorf vials and washed with PBS at 1500 rpm for 10 minutes. After the washing, the cells were treated with 1.0 ml PBS or 1.0 ml of the test chemical solution. Treatment was performed by suspending and vortexing on a low speed for 30 seconds followed by centrifugation at 1500 rpm for 10 minutes.
After the treatment, the cells were washed once with PBS and then 20 μl of erythrosin B was added to each vial. The suspension was centrifuged at 1500 rpm for 10 minutes, and the cells were washed twice under the same conditions. The final pellet was suspended in 300 μl of PBS. This suspension was spread out onto microscope slides and dried overnight at room temperature. After counter staining with methylene blue, the slides were microscopically examined under oil immersion.

[2] = tested on: Salmonella typhimurium ATCC 14028 attached to human buccal epithelial cells; test: microbe, parasite or virus in culture; type: cell-based; details: for adherence, mean value of attached bacteria: Table A-3
Method: Additional studies on the detachment of Salmonella typhimurium from human buccal epithelial cells were conducted.
S. typhimurium ATCC 14028 was grown in nutrient broth (BBL Microbiology system, Cockeysville, Md.) for 16 hours at 37° C. The cells were centrifuged and washed twice with 0.008 M phosphate buffered saline (PBS, at pH 7.2) at 4500 rpm for 10 minutes. The last suspension was diluted in PBS to obtain a cell concentration 0.5 to 1×10^9 cells/ml using spectrophotometric measurement. Human epithelial cells were obtained by swabbing the buccal surface of a healthy, nonsmoking donor. […] The number of living cells was estimated and the suspension was diluted to 0.5 to 1×10^5 cells/ml.
The suspension of the human buccal cells was mixed with an equal volume of the bacterial suspension (3.0 ml), or PBS (0.8 ml) in 10 ml Erlenmeyer flasks. Contact was allowed for 1.5 hours at 35° C. under agitation. After incubation, 1.0 ml of each suspension was transferred into an Eppendorff vial, centrifuged at 3000 rpm for 10 minutes, and washed with PBS. The cells were treated with 1.0 ml PBS or 1.0 ml of the test chemical solution. Treatment was performed by suspending, gently vortexing, and centrifuging at 1500 rpm for 10 minutes. After the treatment, the cells were washed and placed on microscopic slides for examination.
EC50 represents the inverse measurement of the potency of a compound. EC50 values were determined by a nonlinear regression of the detachment effect versus the cationic surfactant concentration data from Table A-3.

[3] = tested on: Salmonella typhimurium ATCC 14028; test: Minimum growth inhibitory concentration, macrodilution; type: cell-based; details: Mueler Hinton broth, macrodilution (NCCLS)
Method: Minimum growth inhibitory concentrations (MICs) of quaternary ammonium compounds and Na2 -EDTA for Salmonella were determined using Mueler Hinton broth (BBL Microbiology system, Cockeysville, Md.) and by the macrodilution method established by the National Committee for Clinical Laboratory Standards (NCCLS). Escherichia coli ATCC 25922 and Staphylococcus aureus ATCC 29213 were included in each assay as reference strains.

[4] = tested on: Salmonella typhimurium ATCC 14028; test: Effect on viability of Salmonella in suspension (Tables D-1 to D-3); type: cell-based; details: for bacterial viability: Table D-1
Method: EC50 values for four of the compounds were calculated from the bactericidal activity of the compounds as a function of molar concentration by a nonlinear regression algorithm.
In addition to the quaternary ammonium compounds, the antimicrobial activities of chelating agents Na2 -EDTA and EGTA were investigated. Na2 -EDTA was purchased from the Sigma Chemical Company (St. Louis, Mo.). Na2 -EDTA was dissolved in 0.04 M PPB prior to the assay and further dilutions were made in the same buffer.
EGTA was purchased from the Aldrich Chemical Company (Milwaukee, Wis.). EGTA was dissolved in 0.04 M PPB according to the procedure described by Harafuji and Ogawa (J. Biochem. 87:1305-1312 (1980)). After heating EGTA for 15 minutes at 80° C., the pH was adjusted to 7.0 by addition of NaOH. EGTA was filter-sterilized using a 0.2 μm Acro disc filter (Gelman Sciences; Ann Arbor, Mich.) prior to the assay. Further dilutions were made in sterile PPB.

[5] = tested on: Salmonella typhimurium on chicken skin; test: Effect of surfactants on Salmonella attached to chicken skin, drumsticks (Tables F1-F4); details: 25° C.
Method: The following experiments utilizing chicken legs were conducted to determine the killing potential of a variety of surfactants against Salmonella on the skin and free in solutions. To this end, chicken legs obtained from the Department of Agriculture at the University of Arkansas, Fayetteville, were incubated for thirty minutes at room temperature with a 1:5000 dilution of Salmonella typhimurium. The chicken legs were removed five at a time and then rinsed twice in tap water to remove the unattached and excess Salmonella. The rinse water was sampled, diluted, and then plated onto XLD pour plates. […] The chicken legs were then removed and rinsed twice in tap water to remove the released Salmonella and excess chemicals. Rinses were then sampled, diluted, and then plated onto XLD pour plates.
The chicken legs were then individually washed with 100 ml sterile double distilled water, and then shaken fifty times. Samples of the wash H2 O were diluted and plated onto XLD pour plates. The chicken legs were further swabbed after the washing step above. The swabs were then plated onto the XLD plates. A set of wash samples were enriched with TT Broth Base Hajna and then plated onto XLD plates.
All of the samples were plated in 1 ml aliquots onto XLD pour plates. A positive control sample incubated in sterile double distilled water at 4° C. was run for each of the aforementioned conditions. Treatments occurred at both 4° C. and 25° C. The data is reported as the mean number of CFU/ml. The ratio in the table represents the number of chicken legs out of a sample of ten chicken legs producing the notated number of colonies, as indicated by the +, ++, +++, or ++++.

## CCCCCCCCCCCC[N+](C)(C)C.[Br-] [DTMAB, dodecyltrimethylammonium bromide]
[1]; 10 ug/ml
  adherence, mean value of attached bacteria: 76 ± 43
[1]; 25 ug/ml
  adherence, mean value of attached bacteria: 41 ± 19
[1]; 75 ug/ml
  adherence, mean value of attached bacteria: 30 ± 18
[1]; 100 ug/ml
  adherence, mean value of attached bacteria: 23 ± 18
[2]; 50 ug/ml
  adherence, mean value of attached bacteria: 113 ± 85
[2]; 75 ug/ml
  adherence, mean value of attached bacteria: 102 ± 59
[2]; 100 ug/ml
  adherence, mean value of attached bacteria: 92 ± 58 and 74 ± 56
[2]; 150 ug/ml
  adherence, mean value of attached bacteria: 80 ± 59
[2]; 200 ug/ml
  adherence, mean value of attached bacteria: 60 ± 43
[2]; 250 ug/ml
  adherence, mean value of attached bacteria: 63 ± 35
[2]; 300 ug/ml
  adherence, mean value of attached bacteria: 54 ± 35
[2]; 325 ug/ml
  adherence, mean value of attached bacteria: 68 ± 39
[2]; Salmonella enterica, Epithelial cell, read-out: EC50 (±SD), detachment
  EC50: 868 ± 112 µM
[3]
  MIC: 150 µg/mL
[3]; Salmonella enterica
  MIC: 156 µg/mL
[4]; 10 ug/ml
  bacterial viability: 1.44 ± 0.07 × 10^9 CFU/ml
[4]; 100 ug/ml
  bacterial viability: 1.3 ± 0.03 × 10^9 CFU/ml
[4]; 200 ug/ml
  bacterial viability: 8.75 ± 1.28 × 10^8 CFU/ml
[4]; 350 ug/ml
  bacterial viability: 800 ± 1300 CFU/ml
[4]; 1000 ug/ml
  bacterial viability: 100 ± 100 CFU/ml
[4]; Salmonella enterica, read-out: EC50 (±SD), effect on viability in suspension
  EC50: 730 ± 64 µM
[5]; 0.1%
  Enrichment, chicken legs out of ten: 8/10
  Rinse H2O: + (1-10)
  Surfactant Solution: 0 CFU/ml
  Swabs, chicken legs producing the notated number of colonies: 6/10
  Swabs, colonies: + (1-10)
  Wash H2O, chicken legs producing the notated number of colonies: 10/10
  Wash H2O, colonies: ++ (11-100)
[5]; 1.0%
  Enrichment, chicken legs out of ten: 0/10
  Rinse H2O: 0 CFU/ml
  Surfactant Solution: 0 CFU/ml
  Swabs, chicken legs producing the notated number of colonies: 0/10
  Wash H2O, colonies: 0 CFU/ml
[5]; .01%
  Enrichment, chicken legs out of ten: 10/10
  Rinse H2O: + (1-10)
  Surfactant Solution: + (1-10)
  Swabs, chicken legs producing the notated number of colonies: 10/10
  Swabs, colonies: + (1-10)
  Wash H2O, chicken legs producing the notated number of colonies: 10/10
  Wash H2O, colonies: ++ (11-100)
